Experimental data as given in US4591589A, “2-aryl pyrazolo[4,3-c]cinnolin-3-ones” (Roussel Uclaf, priority 1985, dated 1986).
Structures can show the parent of a compound that is named as a salt.

Tests used:
mice [1] = assay: Acute toxicity (lethal dose LD0); format: in vivo; details: oral
Procedure: The lethal dose LD0 of the compound of Example 1 was evaluated after administration orally in mice. The maximum dose not causing any mortality in 8 days was called the LD0.

benzodiazepine receptors = assay: Affinity for benzodiazepine receptors (displacement of 3H diazepam, rat brain cortex homogenate); format: binding; details: rat brain cortices; 3H diazepam 10^-9 M, 30 minutes at 0° C., pH 7.4; read-out: Cl 50 (concentration inhibiting by 50% the specific bonding of 3H diazepam)
Procedure: The cortices removed from the brains of male rats weighing an average of 150 g were homogenized to one twentieth part (weight/volume) in 0.32M sucrose. After centrifuging the homogenate at 1000 g for 10 minutes at 0° C., the supernatant layer was centrifuged at 30,000 g for 20 minutes at +4° C. The residue was suspended in 20 volumes of Tris HCl 50 mM buffer with a pH of 7.4 and centrifuged at 30,000 g for 20 minutes at +4° C. The new residue obtained was suspended in 50 ml of Krebs Tris HCl buffer, pH 7.4.
2 ml of this suspension in the presence of ^3 H diazepam at a concentration of 10^-9 M was incubated for 30 minutes at 0° C., alone, and with increasing concentrations of the product under test, or to determine the non-specific fixation, with non-radio-active diazepam at a concentration of 10^-6 M. The incubated suspensions were filtered on Whatman GF/C and the filters were washed twice with 5 ml of Krebs Tris HCl buffer, pH 7.4, at 0° C. The radioactivity of the filters was measured by liquid scintillation. The activity of the product was expressed by CI 50: concentration inhibiting by 50% the specific bonding of ^3 H diazepam, determined graphically.

mice [2] = assay: Plate test in mice (electric shocks); format: in vivo; details: for anxiety reducing activity (plate test): conclusion in words, mice (Example 1 also rats)
Procedure: (§1) The apparatus (Apelab) and the method used are described by BOISSER et al [European J. Pharmacol., 1968, Vol. 4, p. 145]. The plates were linked to a stimulator (U. Sachs, Roucaire) which enabled electric shocks of 120 volts to be delivered during 0.5 seconds. The tests were carried out on groups of 10 mice or rats half an hour after oral administration of the compound studied and each animal has put individually on the apparatus. After 15 seconds of free exploration, it was submitted to an electric shock each time it passed from one plate to another, a minimum of 3 seconds being observed between two shocks. The number of shocks delivered was counted over 1 minute and the results obtained were compared to those observed in the control animals in a test by Dunnett.

rats [3] = assay: Plate test in rats (electric shocks); format: in vivo; details: oral, 20 mg/kg, half an hour after administration, vs control
Procedure: as §1

rats [4] = assay: Staircase test; format: in vivo; details: 20 mg/kg; 1 hour after administration; counted for 3 minutes
Procedure: The apparatus and the method used are described by THIEBOT et al [Psychol-pharmacologia (Berlin), 1973, Vol. 31, p. 77]. The experiment was carried out on groups of 15 inexperienced rats and the animals were put individually in the enclosure 1 hour after administration of the compound studied. The number of straightenings up and the number of steps claimed were counted for 3 minutes.

SMILES | LD0 (maximum dose not causing any mortality in 8 days) (mice [1]) | IC50 (benzodiazepine receptors) [nM] | also measured
Cc1ccccc1-n1nc2c3ccccc3[nH]nc-2c1=O [Example 7, 2,5-dihydro-2-(2-methylphenyl)-3H-pyrazolo[4,3-c]cinnolin-3-one] | 200 | – | –
O=c1c2n[nH]c3ccccc3c-2nn1-c1cccc(C(F)(F)F)c1 [Example 6, 2,5-dihydro-2-(3-trifluoromethylphenyl)-3H-pyrazolo[4,3-c]cinnolin-3-one] | > 400 | – | –
O=c1c2n[nH]c3ccccc3c-2nn1C1=NCCS1 [Example 10, 2,5-dihydro-(2-dihydrothiazol-2-yl)-3H-pyrazolo[4,3-c]cinnolin-3-one hydrochloride] | > 400 | – | –
O=c1c2n[nH]c3ccccc3c-2nn1-c1nccs1 [Example 9, 2,5-dihydro-(2-thiazol-2-yl)-3H-pyrazolo[4,3-c]cinnolin-3-one hydrochloride] | – | 3.1 | –
O=c1c2n[nH]c3ccccc3c-2nn1-c1ccc(OCc2ccccc2)cc1 [Example 5, 2,5-dihydro-2-(4-benzyloxyphenyl)-3H-pyrazolo[4,3-c]cinnolin-3-one] | > 400 | 18 | –
Cl.O=c1c2n[nH]c3ccccc3c-2nn1-c1ccccn1 [Example 8, 2,5-dihydro-(2-pyridin-2-yl)-3H-pyrazolo[4,3-c]cinnolin-3-one hydrochloride] | > 400 | 3.1 | anxiety reducing activity (plate test) (mice [2]): good anxiety reducing activity; increase in number of shocks (mice [2]; mice, oral, 100 mg/kg, half an hour after administration, vs control): 50%
COc1ccc(-n2nc3c4ccccc4[nH]nc-3c2=O)cc1 [Example 4, 2,5-dihydro-2-(4-methoxyphenyl)-3H-pyrazolo[4,3-c]cinnolin-3-one] | > 400 | 2.5 | –
O=c1c2n[nH]c3ccc(Cl)cc3c-2nn1-c1ccccc1 [Example 1, 8-chloro-2,5-dihydro-2-phenyl-3H-pyrazolo[4,3-c]cinnolin-3-one] | > 400 | – | increase in number of shocks delivered (mice [2]; mice, oral, 20 mg/kg, half an hour after administration, vs control): 63%; increase in number of shocks delivered (rats [3]): 41%; decrease in number of straightenings up (rats [4]): 46%
O=c1c2n[nH]c3ccccc3c-2nn1-c1ccc(Cl)cc1 [Example 2, 2-(4-chlorophenyl)-2,5-dihydro-3H-pyrazolo[4,3-c]cinnolin-3-one] | – | 3.7 | –
O=c1c2n[nH]c3ccccc3c-2nn1-c1ccccc1 [Example 3, 2,5-dihydro-2-phenyl-3H-pyrazolo[4,3-c]cinnolin-3-one] | > 200 | 0.9 | anxiety reducing activity (plate test) (mice [2]): good anxiety reducing activity; increase in number of shocks (mice [2]; mice, oral, 50 mg/kg, half an hour after administration, vs control): 50%
